# Laboratory results: paper PMC6271477, “Effects of Single Amino Acid Substitution on the Biophysical Properties and Biological Activities of an Amphipathic α-Helical Antibacterial Peptide Against Gram-Negative Bacteria” (Molecules, 2014)
# Like-named read-outs stand apart in the source and are kept apart here.
# Tests used:
# [1] = Tryptophan fluorescence in HEPES buffer; type: physicochemical; conditions: peptide 2 μM, excitation 280 nm
# Description: (§1) Upon peptide diffusion into the cytoplasmic membrane, evidence of selective interaction between peptides with bacterial versus mammalian cytoplasmic membrane was illustrated by the binding events of the peptides to anionic or zwitterionic lipid vesicles. The repositioning of the tryptophan indole group in an environment of reduced polarity upon membrane binding results in a blue shift in the fluorescence excitation maximum coupled with an enhancement of emission intensity. Lipid/peptide (L/P) ratios were maintained high enough at low peptide concentration (2 μM) in order to mimic the initial steps of peptide-membrane binding. The spectra were recorded as shown in Supplementary Figure S1. […] The significant blue shifts of Δλmax (17 to 23 nm) for all peptides upon exposure to PC/PG vesicles indicated a membrane partition state of Trp in negatively charged vesicles containing 30% anionic lipids (PG).
# (§2) Fluorescence emission spectra of peptide Trp residues were monitored by a Shimadzu RF-5301 spectrofluorometer. The excitation of wavelength was set as 280 nm and the emission spectra of each peptide, with or without lipid vesicles, were recorded between 300 and 450 nm. Thus three curves were recorded for each peptide, in HEPES buffer or with either PC/PG vesicles or PC/cholesterol vesicles. The blue shift of Trp residues in vesicles were referred to in buffer condition. The final concentrations of peptide and lipid were 2 μM and 100 μM (1/50), respectively.
# E. coli DH5α = test: MIC by broth dilution; type: cell-based; conditions: MH broth, 5 × 10^5 CFU/mL, 24 h at 37 °C
# Description: (§3) Minimal inhibitory concentrations (MIC) were determined using a broth dilution method. Briefly, bacteria were grown overnight at 37 °C in Mueller–Hinton (MH) Broth, diluted in the same medium and transferred into 96-well microtiter plates (90 μL/well). Peptides were serially diluted using 0.2% bovine serum albumin containing 0.01% acetic acid and added to the microtiter plates in a volume of 10 μL per well to give a final concentration of 5 × 10^5 CFU/mL. MICs were defined as the lowest peptide concentration that inhibited bacterial growth after incubation for 24 h at 37 °C.
# [2] = Tryptophan fluorescence, binding to lipid vesicles; conditions: for Tryptophan fluorescence emission maximum: excitation 280 nm
# Description: as §1, with “The repositioning of the tryptophan indole group in an environment of reduced polarity upon membrane binding results in a blue shift in the fluorescence excitation maximum coupled with an enhancement of emission intensity.” left out
# Unilamellar vesicles were prepared by a standard procedure with either PC/PG (7:3, w/w) or PC/cholesterol (8:1, w/w) as described previously. Briefly, the desired mixtures of lipids were dissolved in a chloroform/methanol mixture (2:1, v/v), dried under nitrogen and then lyophilized for 24 h to remove traces of organic solvent. Dry lipid films were suspended in 10 mM HEPES buffer containing 150 mM NaCl (pH 7.4) by vortex mixing. After five freeze-thawing cycles, the suspension was extruded 15 times through double polycarbonate membranes with 0.1 μm diameter pores on an Avanti mini-extruder apparatus. The lipid concentration was determined by phosphorus analysis as previously reported.
# as §2
# E. coli ATCC25922 = type: cell-based
# Description: as §3
# P. aeruginosa H188 = type: cell-based
# Description: as §3
# P. aeruginosa ATCC27853 = type: cell-based
# Description: as §3
# E. coli Clinical Isolate = type: cell-based
# Description: as §3
# [3] = CD spectroscopy, helicity in benign buffer and in 50% TFE; type: physicochemical; conditions: for [θ]222, mean residue molar ellipticity, benign / [θ]222, mean residue molar ellipticity, 50% TFE: CD at 222 nm, peptide 75 μM; for [θ]222, mean residue molar ellipticity, benign / [θ]222, mean residue molar ellipticity, 50% TFE / % helix, 50% TFE: 25 °C; for [θ]222, mean residue molar ellipticity, benign: KP buffer (100 mM KCl, 50 mM K2HPO4/KH2PO4, pH 7.0); for [θ]222, mean residue molar ellipticity, 50% TFE / % helix, 50% TFE: KP buffer diluted 1:1 (v/v) with TFE; for % helix, 50% TFE / % helix, benign: relative to the molar ellipticity of peptide V16E in 50% TFE; for % helix, benign: KP buffer pH 7.0, 25 °C
# Description: The secondary structures of peptides were determined in benign buffer and in a hydrophobic environment (50% trifluoroethanol, TFE) to mimic the hydrophobic environment of the membrane. […] The principle of side chain interaction at the i to i + 3 and i to i + 4 positions has been used to promote α-helix stability, for example, the incorporation of Lys and Glu residues to stabilize electrostatic attractions. Thus, the helicity of peptide V16E in the presence of 50% TFE that presented the greatest value among all analogs should rely on the contribution of the electrostatic attraction of the side chain of K13 and E16, which stabilizes the helix. The relative helicity is 100% for peptide V16E in 50% TFE, showing the importance of the salt bridges of K13 and E16 to stabilize the helical structure. In general, subtle side-chain alterations by single amino acid substitutions made no significant changes on secondary structures both in aqueous and in hydrophobic environments (Table 2).
# Circular dichroism spectra were measured with a 0.02 cm path length quartz cuvette on a Jasco J-810 spectropolarimeter (Jasco, Tokyo, Japan) at 25 °C. Data were collected from 250 to 190 nm at a sensitivity of 100 millidegrees, response time of 1 s, bandwidth of 1.0 nm and a scan speed of 100 nm/min. Peptides were measured at a concentration of 75 μM in a benign buffer (50 mM KH2PO4/K2HPO4, 100 mM KCl, pH 7) or the benign buffer mixed with 50% 2,2,2-trifluoroethanol (TFE). The mean residue molar ellipticities were calculated using the equation [θ] = θ/10lcMn, where θ is the ellipticity in millidegrees, l is the optical path length of the cuvette in centimeters, cM is the peptide concentration in mole/liter and n is the number of residues in the peptide.
# [4] = PC/PG (7:3, w/w) vesicles versus HEPES buffer, lipid:peptide 50:1, peptide 2 μM
# [5] = PC/PG (7:3, w/w) vesicles, lipid and peptide in a molar ratio of 50:1, peptide 2 μM, lipid 100 μM
# [6] = PC/cholesterol (8:1, w/w) vesicles versus HEPES buffer, peptide 2 μM, lipid 100 μM
# [7] = PC/cholesterol (8:1, w/w) vesicles, peptide 2 μM, lipid 100 μM
Compound,Tryptophan fluorescence emission maximum [1],MIC (E. coli DH5α),"Blue shift in emission maximum [2, 4]","Tryptophan fluorescence emission maximum [2, 5]","Blue shift in emission maximum [2, 6]","Tryptophan fluorescence emission maximum [2, 7]","MIC (E. coli ATCC25922; E. coli ATCC25922, MH broth, 5 × 10^5 CFU/mL, 24 h at 37 °C)","MIC (P. aeruginosa H188; P. aeruginosa H188, MH broth, 5 × 10^5 CFU/mL, 24 h at 37 °C)","MIC (P. aeruginosa ATCC27853; P. aeruginosa ATCC27853, MH broth, 5 × 10^5 CFU/mL, 24 h at 37 °C)","MIC (E. coli Clinical Isolate; E. coli Clinical Isolate, MH broth, 5 × 10^5 CFU/mL, 24 h at 37 °C)","[θ]222, mean residue molar ellipticity, benign [3]","[θ]222, mean residue molar ellipticity, 50% TFE [3]","% helix, 50% TFE [3]","% helix, benign [3]","MIC (E. coli ATCC25922; ATCC25922, 24 h)","MIC (P. aeruginosa H188; H188, 24 h)","MIC (P. aeruginosa ATCC27853; ATCC27853, 24 h)","MIC (E. coli Clinical Isolate; Clinical Isolate, 24 h)"
CC[C@H](C)[C@H](NC(=O)[C@H](C)NC(=O)[C@H](CCCCN)NC(=O)[C@H](CC(C)C)NC(=O)[C@H](C)NC(=O)[C@@H](NC(=O)[C@H](Cc1cnc[nH]1)NC(=O)[C@H](CC(C)C)NC(=O)[C@@H](NC(=O)[C@@H](NC(=O)[C@H](CCCCN)NC(=O)[C@H](CCCCN)NC(=O)[C@H](C)NC(=O)[C@H](CO)NC(=O)[C@H](CCCCN)NC(=O)[C@H](Cc1ccccc1)NC(=O)[C@@H](NC(=O)[C@H](CCCCN)NC(=O)[C@H](CC(C)C)NC(=O)[C@H](Cc1ccccc1)NC(=O)[C@H](CO)NC(=O)[C@H](CCCCN)NC(=O)[C@H](Cc1c[nH]c2ccccc12)NC(=O)[C@H](CCCCN)NC(C)=O)[C@@H](C)O)[C@@H](C)O)C(C)C)[C@@H](C)O)C(=O)N[C@@H](CO)C(=O)N[C@@H](CO)C(N)=O [P],350 nm,2 µg/mL,22 nm,328 nm,1 nm,349 nm,1 µg/mL,4 µg/mL,4 µg/mL,1 µg/mL,"−2,592 degree·cm^2·dmol^−^1","−29,726 degree·cm^2·dmol^−^1",98.9%,8.6%,–,–,–,–
Ac-KWKSFLKTFKSAKKTKLHTALKAISS-NH2 [Peptide V16K],350 nm,16 µg/mL,21 nm,329 nm,1 nm,349 nm,–,–,–,–,"−1,990 degree·cm^2·dmol^−^1","−29,313 degree·cm^2·dmol^−^1",97.5%,6.6%,32 µg/mL,16 µg/mL,32 µg/mL,8 µg/mL
